Results published in patent publication US4247632A (Kikkoman Shoyu Co., Ltd., priority 1978, dated 1981).

Key:
[1] = test system: methylguanidine-decomposing enzyme; test: Inhibition of the enzyme: residual activity after treatment with inhibitor; assay type: biochemical, Alcaligenes; conditions: for Residual activity of enzyme (%): activity without inhibitor = 100; for Inhibition of the enzyme (in words): conditions and concentrations of Table 1
Method: A substrate solution having a methylguanidine sulfate concentration of 100 μg/ml is prepared by dissolving methylguanidine sulfate into 0.05 M sodium carbonate-sodium bicarbonate buffer solution (pH 11.0). […] If a precipitate is formed, the precipitate is removed by centrifugation or filtration. Thus, an enzymatic reaction fluid is obtained.
Then, each 50 μl of the enzymatic reaction fluid or the control is mixed with 1.5 ml of 0.1 mM solution of phenanthraquinone in dimethylformamide and 0.25 ml of 1 M aqueous solution of sodium hydroxide and subjected to reaction at room temperature for 40-50 minutes, and then 0.25 ml of concentrated hydrochloric acid and 2.5 ml of water are added. Then, the relative fluorescence intensities of the resulted reaction mixtures are measured with a fluorophotometer at an exciting wave length of 310 nm and a fluorescence wave length of 390 nm. The decrease in methylguanidine content is calculated from the difference in fluorescence intensities between each reaction mixture for the enzymatic reaction and the control.
In the expression of activity, a quantity of enzyme enough to decompose 1 μ-mole of methylguanidine per 1 minute at 30° C. is defined as one unit.

[2] = test system: methylguanidine-decomposing enzyme; test: Stabilization of the enzyme; assay type: physicochemical, Alcaligenes; conditions: 10% (V/W) of glycerin added
Source text: The enzyme is stabilized by adding 10% (V/W) of glycerin to it.

[3] = test system: methylguanidine-decomposing enzyme; test: Action and substrate specificity of the enzyme; assay type: biochemical, Alcaligenes
Source text: This enzyme decomposes methylguanidine to form methylamine and urea: [drawing 1]
This enzyme exerts no action upon guanidoacetic acid (glycocyamine) and guanididosuccinic acid.

[4] = 1 mM inhibitor, 30° C., pH 9, 1 hour
[5] = 1 mM inhibitor, 30° C., pH 10, 60 minutes

Row | SMILES | Inhibition of the enzyme (in words) [1] | Action of the enzyme upon the substrate [3] | other results
1 | O[C@H](CS)[C@H](O)CS (racemic) [Dithiothreitol, dithiothreitol] | markedly inhibited |  | Residual activity of enzyme (%) [1, 4]: 0%
2 | OCCS [2-Mercaptoethanol, 2-mercaptoethanol] | markedly inhibited |  | Residual activity of enzyme (%) [1, 4]: 0%
3 | O=[N+]([O-])[O-].[Ag+] [AgNO3, silver nitrate] | markedly inhibited |  | Residual activity of enzyme (%) [1, 5]: 4%
4 | [Cl][Hg][Cl] [HgCl2, mercurie chloride] | markedly inhibited |  | Residual activity of enzyme (%) [1, 5]: 0%
5 | II [I2, iodine] | markedly inhibited |  | Residual activity of enzyme (%) ([1]; 1 mM I2, 40° C., pH 7, 1 hour): 0%
6 | OCC(O)CO [glycerin] |  |  | Stabilization of the enzyme [2]: stabilized
7 | N=C(N)NC(CC(=O)O)C(=O)O (centres unmarked) [guanididosuccinic acid] |  | no action | 
8 | N=C(N)NCC(=O)O [guanidoacetic acid] |  | no action | 
9 | CNC(=N)N [methylguanidine] |  | decomposes | 
